Test results as given in patent publication US20260215432A1, “ANTIMICROBIAL CONJUGATED OLIGOELECTROLYTES AND METHODS THEREOF” (National University of Singapore, priority 2023, published 2026).

What was measured:
PAO1 [1] = assay: Membrane depolarization assay (DiSC3(5)); format: cell-based, P. aeruginosa; conditions: DiSC3(5)-encapsulated PAO1 cells
Text: The interactions of DM6P with various bacterial cell membranes were first investigated through spectrometric methods. In normal cells, compartmentalization of the intracellular space by the lipid bilayer enables the maintenance of a transmembrane potential, which is necessary for regular cell division and energy production. The membrane-potential sensitive dye 3,3′-dipropylthiadicarbocyanine iodide (DiSC3(5)) accumulates within the membranes of healthy, polarized cells where its fluorescence is self-quenched. Depolarization of the membrane necessary to maintain this gradient causes the release of this dye, resulting in an increase in fluorescence intensity. […]
Determination of the extent of depolarization of bacterial cell membranes was carried out using a voltage sensitive dye DiSC3(5) (ThermoFisher, USA). The dye is able to accumulate within polarized healthy cell membranes with resulting quenched fluorescence. When the membrane is depolarized, subsequent ion permeabilization releases the dye from the membrane and gives rise to enhanced fluorescence intensity.^3 The assay was performed according to a modified protocol reported previously. […] The plate was incubated in the dark for 30 minutes, with the signal measured every 5 minutes until a stable baseline was observed. COEs were then added at varying concentrations and the fluorescence intensity was measured over time at 37° C. […]

PAO1 [2] = assay: Flow cytometry of PI uptake; format: cell-based, P. aeruginosa; conditions: PAO1, 16 μg mL^−1 (4× MIC), PI staining
Method: Flow cytometry measurements were carried out to quantify PI uptake at the cellular level.
Bacteria cells were collected from mid-log cultures by centrifugation (7000 rpm, 10 minutes). and washed with PBS twice. Cells were treated with the COE at 4×MIC and incubated for 30 minutes. PI (30 μM, final concentration) was then added and the cells were further incubated for 10 minutes. The suspension was then diluted in PBS to an appropriate cell density and analysed with flow cytometry using an Amnis ImageStreamX Mk II Imaging Flow Cytometer. The collection gate was set using the area vs aspect ratio of the brightfield channel to select for intact cell events only. To select for PI-stained cells, excitation was carried out using a 638 nm laser and the emission was collected in the range of 642-745 nm. Data was processed using IDEAS v6.3.

MRSA [3] = assay: Transmission electron microscopy of treated cells; format: cell-based, S. aureus; conditions: 4 μg mL^−1 for 30 minutes
Method: Damage to the bacterial cell membrane was observed by transmission electron microscopy (TEM). S. aureus cells were incubated with DM6P at 4 μg mL^−1 for 30 minutes and fixed immediately to preserve the membrane ultrastructure as close to the point of cell death as possible. […] In FIG. 7d, cytoplasmic membrane separation, which is a key hallmark of plasmolysis was also observed in a cell, presumably in an earlier stage of death prior to leakage of intracellular components. These observations are consistent with micrographs from cells treated by membrane active AMPs Gramicidin S and PGLa. Taken together, these morphological features are in line with the central idea that TPP-COEs induce damage to the cellular membrane, similar to previously studied COEs. Cellular leakage, protein delocalization and inactivation, and small-molecule permeation are downstream observations frequently associated with cell membrane perturbations.
A mid-log culture of MRSA was treated either with DM6P at 4 Ig mL^−1 or PBS (control) and incubated for 30 minutes. Cells were then fixed with 4% glutaraldehyde at 4° C. overnight and collected by centrifugation (7000 rpm, 10 minutes). The cell pellets were post-fixed with 0.2% OsO4, serially dehydrated in a graded ethanol series, and embedded in an epoxy resin. […]

MRSA [4] = assay: S. aureus murine wound infection model; format: in vivo, mice; conditions: 0.05 mg/kg, MRSA-inoculated mouse wound, 24 hours
Method: To probe the potential of TPP-COEs as viable therapeutics, we assessed the efficacy of DM6P to treat bacterial infections in vivo. An S. aureus murine wound infection model was used due to prevalent clinical concerns associated with S. aureus skin and soft tissue infections (SSTIs). […] Relative to current clinical dosages of 4-6 mg/kg for daptomycin, the low concentrations required to achieve such activity in vivo and absence of bacterial regrowth after 24 hours underscores the potential for further developing TPP-COEs with improved activity and safety profiles.
Animal experiments were approved by the Institutional Animal Care and Use Committee (IACUC), National University of Singapore (R20-1178) and carried out in line with procedures in the Guide for the Care and Use of Laboratory Animals (National Institutes of Health). C57BL6 mice (female, 18-20 g) were anaesthetized by ketamine and the hair at the back were shaved and removed. A 6 mm-diameter excisional wound was created on the back using a biopsy punch. Log phase MRSA (in 5 μl PBS) were inoculated onto the wound. A 3M tegaderm were used to cover the wound site from contamination. […] Significant levels were evaluated by a one-way ANOVA followed by a multiple comparison analysis of variance by a one-way Tukey test (Graphpad PRISM).

## COc1cc(/C=C/c2ccc(OCCCCCC[P+](c3ccccc3)(c3ccccc3)c3ccccc3)c(OC)c2)ccc1OCCCCCC[P+](c1ccccc1)(c1ccccc1)c1ccccc1.[I-].[I-] [DM6P]
PAO1 [1]
  depolarization of the bacterial membrane: dose-dependent depolarization
PAO1 [2]
  PI uptake at the cellular level: near quantitative cell staining with PI
MRSA [3]
  membrane damage by TEM: visible cellular shrinkage and membrane disintegration
MRSA [4]
  reduction in bacterial load compared to the saline-treated group: 3.8 log fold
